From ChEMBL document CHEMBL1140459, “Synthesis of poison-frog alkaloids 233A, 235U, and 251AA and their inhibitory effects on neuronal nicotinic acetylcholine receptors” (Bioorg Med Chem Lett, 2007)

Experiments:
[1] = molecular target: Neuronal acetylcholine receptor subunit alpha-7 (Homo sapiens, UniProt P36544); assay: Inhibition of alpha-7 nAchR expressed in Xenopus laevis oocytes assessed as acetylcholine-induced current by voltage-clamp method; type: functional, cell-based, Oocyte
[2] = molecular target: Neuronal acetylcholine receptor; alpha4/beta2 (Homo sapiens, UniProt P17787+P43681); assay: Inhibition of alpha4beta2 nAchR expressed in Xenopus laevis oocytes assessed as acetylcholine-induced current by voltage-clamp method; type: cell-based, Oocyte
Neuronal acetylcholine receptor; alpha4/beta2, sequence (P17787 whole entry): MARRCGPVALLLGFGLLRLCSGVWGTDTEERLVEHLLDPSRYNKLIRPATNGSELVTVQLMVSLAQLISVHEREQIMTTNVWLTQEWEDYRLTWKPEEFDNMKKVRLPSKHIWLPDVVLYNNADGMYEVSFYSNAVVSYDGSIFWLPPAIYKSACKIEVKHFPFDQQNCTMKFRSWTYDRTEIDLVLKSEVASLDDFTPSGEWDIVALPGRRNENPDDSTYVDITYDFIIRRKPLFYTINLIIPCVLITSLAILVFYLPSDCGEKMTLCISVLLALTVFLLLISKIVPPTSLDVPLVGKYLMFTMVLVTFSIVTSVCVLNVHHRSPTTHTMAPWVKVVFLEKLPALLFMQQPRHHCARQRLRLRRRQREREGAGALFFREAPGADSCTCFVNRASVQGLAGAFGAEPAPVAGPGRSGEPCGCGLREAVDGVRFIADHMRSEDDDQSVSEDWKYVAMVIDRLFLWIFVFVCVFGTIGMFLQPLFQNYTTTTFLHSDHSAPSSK
Neuronal acetylcholine receptor; alpha4/beta2, sequence (P43681 whole entry): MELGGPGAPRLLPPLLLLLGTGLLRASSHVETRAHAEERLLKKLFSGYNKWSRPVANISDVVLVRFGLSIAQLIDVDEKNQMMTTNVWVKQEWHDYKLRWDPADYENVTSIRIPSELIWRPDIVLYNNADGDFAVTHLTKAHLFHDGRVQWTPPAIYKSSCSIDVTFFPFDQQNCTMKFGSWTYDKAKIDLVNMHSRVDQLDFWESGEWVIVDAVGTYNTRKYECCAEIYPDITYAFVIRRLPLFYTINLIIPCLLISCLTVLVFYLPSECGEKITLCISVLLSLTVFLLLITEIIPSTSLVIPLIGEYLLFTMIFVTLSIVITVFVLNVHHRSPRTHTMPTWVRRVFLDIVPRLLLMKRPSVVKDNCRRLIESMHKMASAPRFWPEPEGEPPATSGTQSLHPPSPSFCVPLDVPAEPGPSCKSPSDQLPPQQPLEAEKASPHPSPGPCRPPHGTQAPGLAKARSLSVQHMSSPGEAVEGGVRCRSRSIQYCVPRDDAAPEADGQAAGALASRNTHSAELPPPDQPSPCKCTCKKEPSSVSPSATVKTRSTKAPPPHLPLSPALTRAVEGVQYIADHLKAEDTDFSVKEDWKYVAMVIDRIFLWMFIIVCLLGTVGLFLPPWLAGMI

Neuronal acetylcholine receptor subunit alpha-7, sequence (P36544 whole entry): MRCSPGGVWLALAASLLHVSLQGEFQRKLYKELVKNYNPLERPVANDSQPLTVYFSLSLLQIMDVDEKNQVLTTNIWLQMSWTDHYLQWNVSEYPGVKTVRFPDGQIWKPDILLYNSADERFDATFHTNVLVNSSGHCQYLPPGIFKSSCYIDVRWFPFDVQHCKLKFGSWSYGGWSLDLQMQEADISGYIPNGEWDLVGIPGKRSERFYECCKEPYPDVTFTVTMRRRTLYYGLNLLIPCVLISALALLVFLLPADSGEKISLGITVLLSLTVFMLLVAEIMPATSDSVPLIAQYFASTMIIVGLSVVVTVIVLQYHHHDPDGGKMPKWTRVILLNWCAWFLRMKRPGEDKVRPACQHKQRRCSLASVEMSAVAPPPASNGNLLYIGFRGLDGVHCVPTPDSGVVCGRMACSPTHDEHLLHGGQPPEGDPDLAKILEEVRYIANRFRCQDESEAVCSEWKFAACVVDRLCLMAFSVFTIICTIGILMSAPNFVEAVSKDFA

| Structure (SMILES) | IC50 [1] [µM] | IC50 [2] [µM] |
| --- | --- | --- |
| C#CCCC[C@@H]1CC[C@@H](CC)[C@@H]2CCCCN12 | 7.4 | 5.1 |
| C=CCCC[C@@H]1CC[C@@H](CC)[C@@H]2CCCCN12 | 5.2 | 3.5 |
| CCCCCC[C@@H]1CC[C@@H](CC)[C@@H]2CCCCN12 | 4.1 | 2.5 |
